From US6573263B2, “Substituted imidazotriazinones” (Bayer Aktiengesellschaft, priority 2000, dated 2003)

Tests used:
[1] = molecular target: T1, PDE 2 (UniProt P14099); assay: Measurement of the PDE inhibition (PDE 2, [3H]-cAMP substrate, cGMP prestimulation); format: biochemical, porcine or bovine; conditions: cGMP-stimulated PDE 2
T1 sequence (P14099 1-921): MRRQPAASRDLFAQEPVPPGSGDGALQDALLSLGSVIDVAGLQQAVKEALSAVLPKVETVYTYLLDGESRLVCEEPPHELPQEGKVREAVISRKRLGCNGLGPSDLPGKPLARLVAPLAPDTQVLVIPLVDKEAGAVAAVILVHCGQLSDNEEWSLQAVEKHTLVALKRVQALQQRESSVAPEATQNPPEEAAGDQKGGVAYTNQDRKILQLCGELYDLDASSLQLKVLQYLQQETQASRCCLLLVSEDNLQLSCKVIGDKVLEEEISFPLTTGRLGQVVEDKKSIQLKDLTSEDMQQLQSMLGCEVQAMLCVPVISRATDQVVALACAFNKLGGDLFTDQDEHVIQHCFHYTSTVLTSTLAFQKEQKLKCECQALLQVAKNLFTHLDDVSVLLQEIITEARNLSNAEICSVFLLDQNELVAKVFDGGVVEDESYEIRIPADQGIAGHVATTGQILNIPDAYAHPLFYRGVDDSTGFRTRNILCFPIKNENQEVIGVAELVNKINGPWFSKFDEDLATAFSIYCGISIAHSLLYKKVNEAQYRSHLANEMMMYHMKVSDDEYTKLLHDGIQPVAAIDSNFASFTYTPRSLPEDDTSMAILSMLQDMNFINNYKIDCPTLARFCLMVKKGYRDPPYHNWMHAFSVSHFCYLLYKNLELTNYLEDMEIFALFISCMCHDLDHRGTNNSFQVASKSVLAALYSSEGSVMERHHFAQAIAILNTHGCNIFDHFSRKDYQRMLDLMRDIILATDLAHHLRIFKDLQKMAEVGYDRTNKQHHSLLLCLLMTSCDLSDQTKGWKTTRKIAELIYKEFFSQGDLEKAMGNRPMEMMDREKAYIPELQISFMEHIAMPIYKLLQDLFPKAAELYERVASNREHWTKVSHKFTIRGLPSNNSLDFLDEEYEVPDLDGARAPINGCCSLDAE
Procedure: The cGMP-stimulable PDE (PDE 2), the cGMP-inhibitable PDE (PDE 3) and the cAMP-specific PDE (PDE 4) were isolated either from porcine or bovine heart myocardium. The Ca^2+ calmodulin-stimulable PDE 1 was isolated from porcine aorta, porcine brain or preferably from bovine aorta. The cGMP-specific PDE (PDE 5) was preferably obtained from porcine small intestine, porcine aorta, human blood platelets and preferably from bovine aorta. Purification was carried out by anion exchange chromatography on mono Q^R Pharmacia essentially according to the method of Hoey, M; Houslay, M. D., Biochem. Pharmacol. 1990, 40, 193-202 and Lugman et al. Biochem. Pharmacol. 1986, 35, 1743-1751.
The enzyme activity was determined in a test batch of 100 μl in 20 mM tris/HCl buffer pH 7.5 which contains 5 mM MgCl2, 0.1 mg/ml of bovine serum albumin and either 800 Bq of [^3H]-cAMP or [^3H]-cGMP. […] 100 μl of the reaction batch are separated on the HPLC and the cleavage products are determined quantitatively online using a flow-through scintillation counter. The substance concentration at which the reaction rate is decreased by 50% is measured. […]
Test substances were dissolved in 100% DMSO (10 mM), and this solution was further diluted with H2O (highest final concentration in the test: 10 μM). […] After the beads had settled (about 15 min), the plate was measured in a beta counter.

[2] = test system: intracellular neuronal cGMP concentration in primary rat brain cell cultures; assay: Measurement of the increase in the intracellular neuronal cGMP concentration in cell cultures (SNP prestimulation); format: cell-based; conditions: parallel incubation of neurons with SNP, 37° C., 20 min
Text: PDE 2 inhibitors increase the intracellular neuronal cGMP concentration after prestimulation of the guanylate cyclase using 10^−4 M sodium nitroprusside (SNP) in primary rat brain cell cultures.
Rat embryos were decapitated and the heads were transferred to preparation dishes. The scalp and cranium were removed, and the exposed brains were transferred to a further Petri dish. With the aid of a binocular microscope and two pairs of forceps, hippocampi were isolated from the cortex and cooled to 4° C. using ice. This preparation and the isolation of the hippocampal neurons were then carried out according to a standard protocol using the papain dissociation system (Worthington Biochemical Corporation, Lakewood, N.J. 08701, USA) (Huettner et al. J. Neurosci. 1986, 6, 3044-3060). The mechanically isolated neurons were cultured under standard conditions (37° C., 5% CO2) to 150,000 cells/hole in 200 μl of neurobasal medium/hole (neurobasal; Gibco/BRL; 2 mM L-glutamine; in the presence of penicillin/streptomycin) for 7 days in 96-hole plates (pretreated with poly-D-lysine 100 μg/ml for 20 min). After 7 days, the medium was removed and the cells were washed with HBS buffer (Gibco/BRL). […] The cells were then lysed in 200 μl of lysis buffer (cGMP kit code RPN 226; from Amersham Pharmacia Biotech.) and the cGMP concentration was measured according to the instructions of the manufacturer. […]

[3] = test system: rats; assay: Object recognition test (memory test); format: in vivo; conditions: rat, dose of 1.0 mg/kg of body weight p.o., 24 hours interval
Procedure: The object recognition test is a memory test. It measures the ability of rats (and mice) to differentiate between known and unknown objects and is therefore suitable for the determination of the memory-improving action of the compounds according to the invention.
The test is carried out as described (Blokland et al. NeuroReport 1998, 9, 4205-4208; Ennaceur, A., Delacour, J., Behav. Brain Res. 1988, 31, 47-59; Ennaceur, A., Meliani, K., Psychopharmacology 1992, 109, 321-330; Prickaerts, et al. Eur. J. Pharmacol. 1997, 337, 125-136).
In a first passage, a rat in an otherwise empty relatively large observation arena is confronted with two identical objects. The rat will extensively examine, i.e. sniff and touch, both objects. In a second passage, after an interval of 24 hours, the rat is again tested in the observation arena. One of the known objects is now replaced by a new, unknown object. When a rat recognizes the known object, it will especially examine the unknown object. After 24 hours, a rat, however, has normally forgotten which object it has already examined in the first passage, and will therefore inspect both objects equally intensively. The administration of a substance having learning- and memory-improving action will lead to a rat recognizing the object already seen 24 hours beforehand, in the first passage, as known. […]

SMILES: COc1ccc(Cc2nn3c(C(CCCc4ccccc4)C(C)=O)nc(C)c3c(=O)[nH]2)cc1 (stereo not shown) [Example 2, 7-(1-Acetyl-4-phenylbutyl)-2-(4-methoxybenzyl)-5-methylimidazo[5,1-f][1,2,4]triazin-4(3H)-one]
- IC50 [1]: 10 nM
- melting point: 138 °C

SMILES: COc1ccc(Cc2nn3c(C(CCCc4ccccc4)C(C)O)nc(C)c3c(=O)[nH]2)cc1OC (stereo not shown) [Example 15, 2-(3,4-Dimethoxybenzyl)-7-[1-(1-hydroxyethyl)-4-phenylbutyl]-5-methylimidazo-[5,1-f][1,2,4]triazin-4(3H)-one]
- concentration from which a marked increase in the intracellular cGMP level was seen [2]: ≥ 100 nM

SMILES: COc1ccc(Cc2nn3c([C@@H](CCCc4ccccc4)[C@@H](C)O)nc(C)c3c(=O)[nH]2)cc1OC (single isomer, unassigned) [Example 16]
- effect in the object recognition test [3]: shows an effect
